From patent US20170266192A1, “METHODS FOR IMPROVING DIAPHRAGM FUNCTION” (CYTOKINETICS, INC., priority 2012, published 2017)

Assays:
[1] = tested on: rat skinned diaphragm fibers; assay: Force-pCa skinned muscle fiber analysis; assay type: cell-based
Procedure: (§1) Muscle tissue for in vitro skinned fiber studies were prepared using a protocol based on Lynch and Faulkner (Am J Physiol 275:C1548-54 (1998)). Briefly, rat diaphragm or rabbit psoas muscles were rapidly dissected and rinsed with physiological saline. Muscles were then incubated in skinning solution (125 mM K-propionate, 20 mM imidazole, 5 mM EGTA, 2 mM MgCl2, 2 mM ATP, pH 7.0) supplemented with 0.5% Brij 58 (Sigma Chemicals, St. Louis, Mo.) or 0.5% Triton X-100 (Sigma Chemicals, St. Louis, Mo.) for 30 minutes at 4° C. Muscles were then placed in storage solution (125 mM K-propionate, 20 mM imidazole, 5 mM EGTA, 2 mM MgCl2, 2 mM ATP, glycerol 50%, pH 7.0) at −20° C. Muscles were incubated in storage solution at −20° C. for later use.
For skinned fiber analysis, single muscle fibers were dissected from larger segments of tissue in rigor buffer at 4° C. ([…], pH 7.0). They were then suspended between a 400 A force transducer (Aurora Scientific, Ontario, Canada) and a fixed post and secured with 2-4 μl of a 5% solution of methylcellulose in acetone. Fibers were then incubated at 10° C. in a relaxing buffer ([…], 1 mg/ml creatine kinase, 1 mM DTT, 44 ppm antifoam, pH 7.0) and baseline tension adjusted. Tension was generated in each fiber by changing fiber buffer over to relax buffer supplemented with 1 mM EGTA and one or more concentrations of aqueous calcium chloride. Test articles were added to these buffers in a 1% DMSO solution.
Force production was measured in rat skinned diaphragm fibers exposed to increasing concentrations of calcium in the presence and absence of the fast skeletal muscle troponin activator Compound B, (3-(2-(((trans)-3-fluoro-1-(3-fluoropyridin-2-yl)cyclobutyl)methylamino)pyrimidin-5-yl)benzamide), according to the procedure of Example 1.
Force production was measured in rat skinned diaphragm fibers exposed to increasing concentrations of calcium in the presence and absence of the fast skeletal muscle troponin activator Compound C, 1-(ethylpropyl)-6-ethynylimidazo[4,5-b]pyrazin-2-ol, according to the procedure in Example 1.

SOD1 mice = assay: Unrestrained whole body plethysmography (UWBP); assay type: in vivo, mouse; conditions: 10 mg/kg
Procedure: Wild type (WT) and SOD1 mice were dosed with vehicle or 10 mg/kg Compound C and placed in plethysmography chambers for 30 minutes of acclimatization. After acclimatization, respiratory parameters, including tidal volume, respiratory rate, and minute ventilation, were monitored for 10 minutes at room air. Upon completion of baseline room air measurements, animals were exposed to a 5% CO2 gas mixture for 30 minutes. After the 5% CO2 exposure, animals were re-exposed to room air and monitored.

[2] = tested on: WT and SOD1 mouse diaphragm muscle; assay: Diaphragm force-frequency relationship in a mouse ALS model; conditions: frequencies up to 30 Hz; dose-dependent
Procedure: (§2) Diaphragm contractile force was measured by electrical field stimulation in an organ bath system (Radnoti) based on a standard operating protocol adapted from the Treat NMD website (http://www.treat-nmd.eu/downloads/file/sops/dmd/MDX/DMD M.1.2.002.pdf). The diaphragm and the last floating rib from wild type (WT) and SOD1 mice were excised, rinsed in physiological saline, and placed in a temperature controlled water-jacketed chamber (26-27° C.) containing Krebs-Henseleit Buffer (118 mM NaCl, 10 mM glucose, 4.6 mM KCl, 1.2 mM KH2PO4, 1.2 mM MgSO4*7H2O, 24.8 mM NaHCO3, 2.5 mM CaCl2, 50 mg/L tubocurarine, 50 U/L insulin, pH:7.4) that was continuously aerated with 95% O2/[…]. After 10 minutes of equilibration, vertical strips spanning the floating rib to the central tendon were cut from diaphragms. Braided silk sutures were tied at the central tendon and floating rib and attached to a force transducer between two platinum electrodes. Diaphragm strips were set to a length that produced maximum twitch tension (Lo). The force-frequency profile of the muscle was obtained by stimulating the muscle at frequencies between 10-150 Hz (Grass Stimulator, 800 ms train duration, 0.6 ms pulse width). Compound C was suspended in DMSO and directly added into the bath.

rat diaphragm muscle [3] = assay: Force-frequency relationship, ex vivo electrical field stimulation
Procedure: as §2, with “SHAM” for “wild type (WT)”, “LAD rats” for “SOD1 mice”, “width).” for “width). Compound C was suspended in DMSO and directly added into the bath.”
Force production was measured in rat diaphragm muscle ex vivo by electrical field stimulation in the presence and absence of Compound B according to the procedure of Example 6. Compound B was suspended in DMSO and added directly to the bath.
Force production was measured in rat diaphragm muscle ex vivo by electrical field stimulation in the presence and absence of fast skeletal muscle troponin activator Compound D, 1-(2-(((trans)-3-fluoro-1-(3-fluoropyridin-2-yl)cyclobutyl)methylamino)pyrimidin-5-yl)-1H-pyrrole-3-carboxamide according to the procedure of Example 6. Compound D was suspended in DMSO and added directly to the bath.

[4] = tested on: skinned diaphragm fibers from SHAM and LAD rats; assay: Force-pCa skinned muscle fiber analysis in a rat model of HF; assay type: cell-based; conditions: 3 μM
Procedure: as §1
For skinned fiber analysis, single muscle fibers were dissected from larger segments of tissue in rigor buffer at 4° C. (20 μM MOPS, 5 μM MgCl2, 120 μM potassium acetate, 1 μM EGTA, pH 7.0). They were then suspended between a 400 A force transducer (Aurora Scientific, Ontario, Canada) and a fixed post and secured with 2-4 μl of a 5% solution of methylcellulose in acetone. […]
Force production was measured in skinned diaphragm fibers from SHAM and LAD rats exposed to increasing concentrations of calcium in the presence and absence of Compound D according to the procedure of Example 1.

[5] = tested on: permeabilized single fibers from rabbit psoas muscle; assay: Skinned fiber tension at constant calcium, rabbit psoas; assay type: cell-based
Procedure: as §1
(§3) For skinned fiber analysis, single muscle fibers were dissected from larger segments of tissue in rigor buffer at 4° C. (20 μM MOPS, 5 μM MgCl2, 120 μM potassium acetate, 1 μM EGTA, pH 7.0). […]
(§4) The functional effects of the fast skeletal muscle troponin activator, Compound A (6-bromo-1-(ethylpropyl)imidazo[4,5-b]pyrazin-2-ol), on skeletal muscle force were assessed under isometric conditions in permeabilized single fibers from rabbit psoas muscle and rat diaphragm muscle according to the procedure of Example 1.

[6] = tested on: permeabilized single fibers from rat diaphragm muscle; assay: Skinned fiber tension at constant calcium, rat diaphragm; assay type: cell-based
Procedure: as §1, §3, §4

rat diaphragm muscle [7] = assay: Diaphragm repeated contraction fatigue analysis; conditions: 5 uM and 10 uM, dose-dependent; 20 Hz stimulation, 10 minutes
Procedure: as §2, with “SHAM” for “wild type (WT)”, “LAD rats” for “SOD1 mice”, “The force-frequency profile of the muscle was obtained by stimulating the muscle at frequencies between 10-150 Hz (Grass Stimulator, 800 ms train duration, 0.6 ms pulse width). Compound C was suspended in DMSO and directly added into the bath.” left out
Following the procedure of Example 7, diaphragms were subjected to repeated electrical stimulations (20 Hz stimulation, 330 ms train duration, 1 train/sec) over a period of 10 minutes. Force production was measured over 600 contractions in rat diaphragm muscle ex vivo by field electrical stimulation in the presence and absence of Compound B (5 uM and 10 uM).

[8] = 30 μM, submaximal frequencies of electrical stimulation
[9] = skinned fibers, constant calcium, 10 nM-40 μM

C#Cc1cnc2nc(O)n(C(CC)CC)c2n1 [Compound C, 1-(ethylpropyl)-6-ethynylimidazo[4,5-b]pyrazin-2-ol]
pCa at 50% of Maximum Tension, Log [Ca^2+] (M) ([1]; 0.1 uM compound, vehicle −5.43 ± 0.054): −5.59 ± 0.007 M
pCa at 50% of Maximum Tension, Log [Ca^2+] (M) ([1]; 1 uM compound, vehicle −5.43 ± 0.054): −6.19 ± 0.018 M
increase in calcium sensitivity compared to vehicle-only muscle fibers ([1]; 10 μM Compound C): 10 fold
pCa at 50% of Maximum Tension, Log [Ca^2+] (M) ([1]; 10 uM compound, vehicle −5.43 ± 0.054): −6.74 ± 0.28 M
tidal volume at recovery compared to vehicle-treated animals (SOD1 mice; after 30 minute exposure to 5% CO2): significantly higher tidal volume
tidal volume at baseline compared to vehicle-treated animals (SOD1 mice; room air): significantly higher tidal volume
force production in SOD1 diaphragm muscle compared to vehicle-only [2]: significantly more force
force production in WT diaphragm muscle compared to vehicle-only [2]: significantly more force

NC(=O)c1ccn(-c2cnc(NCC3(c4ncccc4F)CC(F)C3)nc2)c1 (stereo not drawn) [Compound D, 1-(2-(((trans)-3-fluoro-1-(3-fluoropyridin-2-yl)cyclobutyl)methylamino)pyrimidin-5-yl)-1H-pyrrole-3-carboxamide]
force in HF (LAD) diaphragms (rat diaphragm muscle [3]; [8]): significantly increased force
force in SHAM diaphragms (rat diaphragm muscle [3]; [8]): significantly increased force
Ca^2+ sensitivity of HF diaphragm fibers [4]: significantly increased Ca^2+ sensitivity
Ca^2+ sensitivity of SHAM diaphragm fibers [4]: significantly increased Ca^2+ sensitivity

CCC(CC)n1c(O)nc2ncc(Br)nc21 [Compound A, 6-bromo-1-(ethylpropyl)imidazo[4,5-b]pyrazin-2-ol]
EC50 ([5]; rabbit psoas fibers, constant free calcium 1.78 μM (pCa=5.75), n=3, read-out: EC50, increase in skinned fiber tension): 590 nM
tension in rabbit psoas muscle [5, 9]: increased tension
EC50 ([6]; rat diaphragm fibers, constant free calcium 3.16 μM (pCa=5.5), n=4, read-out: EC50, increase in skinned fiber tension): 1200 nM
tension in rat diaphragm muscle [6, 9]: increased tension

NC(=O)c1cccc(-c2cnc(NC[C@]3(c4ncccc4F)C[C@H](F)C3)nc2)c1 [Compound B, 3-(2-(((trans)-3-fluoro-1-(3-fluoropyridin-2-yl)cyclobutyl)methylamino)pyrimidin-5-yl)benzamide]
pCa at 50% of Maximum Tension, Log [Ca^2+] (M) ([1]; 0.5 uM compound, vehicle −5.43 ± 0.03): −5.78 ± 0.008 M
pCa at 50% of Maximum Tension, Log [Ca^2+] (M) ([1]; 1 uM compound, vehicle −5.43 ± 0.03): −5.90 ± 0.03 M
increase in calcium sensitivity compared to vehicle-only muscle fibers ([1]; 10 μM Compound B): 10 fold
pCa at 50% of Maximum Tension, Log [Ca^2+] (M) ([1]; 10 uM compound, vehicle −5.43 ± 0.03): −6.46 ± 0.03 M
force production compared to vehicle-only diaphragms (rat diaphragm muscle [3]; frequencies up to 30 Hz of electrical stimulation): significantly more force
force production over 600 contractions compared to vehicle-only diaphragms (rat diaphragm muscle [7]): significantly more force
